Experiments:
[1] = tested on: ProRS (prolyl t-RNA synthetase L482H, parent Dd2); assay: Cross-resistance EC50 assay, ProRS; assay type: cell-based; details: Plasmodium falciparum, SYBR green 72 hour assay, synchronized parasites, 384-well format
Source text: (§1) To evaluate potential overlapping activity against known antimalarial drug targets, we performed dose-response studies with each compound against our assembled set of drug-resistant lines and their corresponding parents, in an asexual blood stage proliferation assay (Table 1). Comparisons were made to the drug-sensitive strain 3D7 when a parent was unavailable (TM90C2A, W2 and Dd2). As laboratories conducted EC50 assays with different strains and protocols, all comparisons were made between assays from the same laboratory and under the same assay conditions. Compounds displaying >5-fold EC50 shifts relative to the parent or sensitive strain were flagged as having potentially non-novel targets. Average fold shifts per strain ranged from 0.82 to 2.34, with a median of 1.23 indicating there was not common resistance to any one resistant clone. No resistance patterns were observed when classifying the compounds based on chemical structure, but this was not surprising given the diversity of compounds chosen. On the other hand, given that these confirmed compounds were derived from larger unconfirmed hit lists to which some filtration criteria may have been applied (for example, elimination of obvious dihydrofolate reductase inhibitors[32]), some[10][11][12][13] pre-existing bias may exist in the set. […]
(§2) Alternatively, a SYBR Green-based proliferation approach was used for the 72-h assay, as previously described. Briefly, a culture of either synchronized or asynchronous parasitized RBCs (0.3% parasitemia and 4% haematocrit) in screening medium (identical to supplemented medium above except no serum was added) was exposed to serial drug dilutions. Plates were incubated at 37 °C and gassed with 93% N2, 4% CO2 and 3% O2 for 72 h. Following incubation, 10 × SYBR Green I (Invitrogen; supplied in 10,000 × concentration) in lysis buffer ([…], 5 mM EDTA, 0.16% Saponin wt per vol and 1.6% Triton X vol per vol) was added to the wells and the plates were incubated overnight at room temperature before plate reading. EC50 assays were repeated three times, taking the average EC50 value from each assay set, and removing any outliers using a single iteration of Grubbs' test, eliminating values with z-scores above the critical z-value (α=0.05). The raw EC50 values for synchronized parasites assayed in a 384-well format are listed in Supplementary Data 4. The raw EC50 values for asynchronous parasites assayed in a 96 or 1536-well format are listed in Supplementary Data 5.
(§3) EC50 values for each strain were compared with those of the corresponding parent strain to determine fold-shift changes and identify resistance. To minimize the cause variance between assays, all comparisons were conducted between strains assayed under identical conditions. A one-way ANOVA followed by a Dunnet's post-test was conducted in GraphPad Prism to identify significant changes between the parent and resistant strain.

[2] = tested on: GNF449-R2 (PfATP4 I203L and P990R, parent Dd2); assay: Cross-resistance EC50 assay, GNF449-R2; assay type: cell-based; details: Plasmodium falciparum, SYBR green 72 hour assay, asynchronized parasites, 96-well or 1536-well format
Source text: as §1, §2, §3

[3] = tested on: W2; assay: Cross-resistance EC50 assay, W2 parent; assay type: cell-based, Plasmodium falciparum; details: Plasmodium falciparum, 48 h, read-out: W2F6 (PARENT) Average EC50
Source text: Multidrug resistance alleles, including mutations in P. falciparum chloroquine resistance transporter (pfcrt) and P. falciparum multi-drug resistance transporter 1 (pfmdr1) are very common in field isolates. Therefore, we sought to assess the degree to which pre-existing resistance alleles would contribute to a loss of potency for this diverse collection of small molecule compounds. Fifteen clones derived from three main parent lines were chosen to maximize diversity in mutated pathways and genetic backgrounds, thus representing the variety of resistance seen in the field: 3D7 (ref. [23]), W2 (ref. [24]) or Dd2 (ref. [25]). The 3D7 line originates from the clone of a Netherlands clinical isolate strain[23][26] and is generally considered to be drug sensitive, though it does convey resistance to sulfadoxine. Conversely, W2 (ref. [24], [27]) and Dd2 (ref. [25]) are multi-drug-resistant lines originating from the Indochina III/CDC isolate, which contain point mutations in pfcrt as well as amplifications in pfmdr1 and GTP cyclohydrolase.
To evaluate potential overlapping activity against known antimalarial drug targets, we performed dose-response studies with each compound against our assembled set of drug-resistant lines and their corresponding parents, in an asexual blood stage proliferation assay (Table 1). Comparisons were made to the drug-sensitive strain 3D7 when a parent was unavailable (TM90C2A, W2 and Dd2). As laboratories conducted EC50 assays with different strains and protocols, all comparisons were made between assays from the same laboratory and under the same assay conditions. Compounds displaying >5-fold EC50 shifts relative to the parent or sensitive strain were flagged as having potentially non-novel targets. Average fold shifts per strain ranged from 0.82 to 2.34, with a median of 1.23 indicating there was not common resistance to any one resistant clone. No resistance patterns were observed when classifying the compounds based on chemical structure, but this was not surprising given the diversity of compounds chosen. On the other hand, given that these confirmed compounds were derived from larger unconfirmed hit lists to which some filtration criteria may have been applied (for example, elimination of obvious dihydrofolate reductase inhibitors[32]), some[10][11][12][13] pre-existing bias may exist in the set.
(§4) The 48-h assay was carried out in a 96-well format following standard methods using the ^3H-hypoxanthine incorporation assay. The raw EC50 values corresponding to this assay can be found in Supplementary Data 3. Briefly, this assay relies on the parasite incorporation of labelled hypoxanthine that is proportional to P. falciparum growth. A culture of parasitized RBCs (0.5% parasitemia with a percentage of ring stage higher than 70% of total parasitemia, 2.0% haematocrit) in RPMI-1640, […] and 5 μM hypoxanthine was exposed to drug serial dilutions. Plates were incubated for 24 h at 37 °C, 5% CO2, 5% O2 and 90% N2. After 24 h of incubation, ^3H-hypoxanthine was added and plates were incubated for an additional 24-h period. After that, parasites were harvested on a glass fibre filter using a TOMTEC Cell Harvester 96. Filters were dried and melt-on scintillator sheets were used to determine the incorporation of ^3H-hypoxanthine. Radioactivity was measured using a microbeta counter. Data were normalized using the incorporation of the positive (parasitized RBCs without drug) and negative (same culture with artesunate at 2 μM) controls. All assays were conducted in triplicate using three independently grown cultures, and EC50 values were determined using the XLfit add-in module for Excel (version 2.3.1) from Grafit (version 5.3.1.3), where parameter h is the assay hill slope, x is the compound concentration and y is the inhibition of growth effect. The XLfit equation is: […]
Alternatively, a SYBR Green-based proliferation approach was used for the 72-h assay, as previously described. […]

[4] = tested on: P. falciparum strain 3D7; assay: Asexual blood stage 3H-hypoxanthine incorporation assay, 3D7; assay type: cell-based, Plasmodium falciparum; details: Plasmodium falciparum, 3D7, asexual stage, P. falciparum 3D7; read-out: 3D7 EC50
Protocol: as §4

| Structure (SMILES) | EC50 ([1]; DD2, ProRS strain) [nM] | EC50 [2] [µM] | EC50 [3] [nM] | EC50 [4] [nM] | EC50 ([1]; strain ProRS (Dd2 parent)) [nM] |
| --- | --- | --- | --- | --- | --- |
| COc1ccc2c3c([nH]c2c1)[C@H](CO)N(C(C)=O)CC31CCN(C(=O)Nc2ccccc2F)CC1 [MMV673482] | 94 | 0.007 | 176 |  |  |
| CN(C)Cc1ccc(-c2cc3c(-c4ccc(CN(C)C)cc4)ccnc3[nH]2)cc1.O=C(O)C(F)(F)F [MMV022224] |  | 0.518 | 406 | 388 | 294 |
| COc1cc(C(=O)ON=C(N)Cc2cccc3ccccc23)cc(OC)c1OC [MMV666687] |  | 0.813 | 463 | 348 | 326 |
| O=C(Nc1ccc(Cl)c(Cl)c1)Nc1ccc(Cl)c(Cl)c1 [MMV665852] |  | 1.95 | 1590 | 1170 | 716 |
| Nc1ccc(-c2nc3cc(Oc4ccc(Oc5ccc6[nH]c(-c7ccc(N)cc7)nc6c5)cc4)ccc3[nH]2)cc1 [MMV011895] |  | 0.644 | 279 | 160 | 232 |
| CC(C)c1cccc(C(NC(=O)C2Cc3ccccc3CN2C(=O)c2cccc(N3CCOCC3)c2)C2CCCC2)c1 (stereo not drawn) [MMV028038] |  | 0.555 | 489 | 540 | 297 |
| FC(F)(F)c1cccc(Nc2nc3ccccc3nc2Nc2cccc(C(F)(F)F)c2)c1 [MMV665794] |  | 0.37 | 181 | 100 | 93 |
| c1cc(-c2cnc3ccc(-c4ccc(N5CCOCC5)cc4)nn23)ccn1 [MMV668311] |  | 0.03 | 29 | 48 | 62 |
| CCN(CC)CCn1c(=N)n(CC(O)c2ccc(Cl)c(Cl)c2)c2ccccc21.Cl (stereo not drawn) [MMV000248] |  | 0.497 | 605 | 306 | 360 |
| COc1ccc(NC(=O)N2CCCCN3[C@H](CN)[C@H](c4ccc(C#Cc5ccccc5)cc4)[C@@H]3C2)cc1 [BRD1095] | 17 | 0.00119 |  | 40 |  |
| Cc1cc(Nc2ccc(OCc3ccccc3)cc2)nc2cc(O)ccc12 [MMV007181] |  | 0.153 | 34 | 346 | 105 |
| CC(NCc1ccccc1)c1cc(Cl)ccc1O (stereo not drawn) [MMV665789] |  | 0.201 | 147 | 1250 | 334 |
| COc1cc2cc(C(=O)Nc3ccccc3)c(N)nc2cc1OC [MMV006767] |  | 0.329 | 1820 | 960 | 1730 |
| COc1ccc(N2CCN(C(CNC(=O)C3CCCCC3)c3ccc4c(c3)OCO4)CC2)cc1 (stereo not drawn) [MMV019662] |  | 0.452 | 428 | 340 | 481 |

From article PMC4912613, “A broad analysis of resistance development in the malaria parasite” (Nature Communications, 2016)
